Positions of bridges follow the written chain, without caps; N, C: chain ends. Non-standard residues stand in square brackets, D forms with d. No end group written: not given here. Hyp = O=C(O)[C@@H]1C[C@@H](O)CN1
Legend:
[1] = tested on: BgNaV1; details: cited from earlier work
Excerpt: (§1) The α-1 induced alterations of gating kinetics resemble the effects of other peptide toxins known to be binding to the so-called neurotoxin binding site 3[18],[19]. Such toxins trap the voltage-sensing segment S4 of domain 4 in its inward or dea ...

[2] = tested on: DmNaV1; details: cited from earlier work
Excerpt: as §1

[3] = target: Blattella germanica voltage-gated sodium channel BgNaV1 (Blattella germanica) (UniProt O01307)
[4] = target: voltage-gated sodium channel NaV1.6 (not stated (mNaV1.6 in the methods, human in the results)) (UniProt Q9WTU3)

Molecule	inhibition of inactivation [1]	inhibition of inactivation [2]	two-electrode voltage clamp on oocytes: concentration-response curve of the toxin-induced modulation of BgNaV1 currents, EC50 [3]	two-electrode voltage clamp on oocytes: concentration-response curve on NaV1.6, EC50 (Figure S4C) [4]
anthopleurin A: sea anemone toxin	complete inhibition of the inactivation	complete inhibition of the inactivation	–	–
ATX-II: sea anemone toxin	complete inhibition of the inactivation	complete inhibition of the inactivation	–	–
GCIATGSFCTLSKGCCTKNCGWNFKCN[Hyp][Hyp]NQK (disulfide 15-26, 2-16, 9-20) [nemertide α-1]	–	–	8.6 nM	800 nM

— paper PMC5864730, “Peptide ion channel toxins from the bootlace worm, the longest animal on Earth” (Scientific Reports, 2018)
